What was measured:
HDAC 6 = target: T1, HDAC 6 (Homo sapiens, UniProt Q9UBN7); experiment: Caliper HDAC inhibitor profiling assay (microfluidic mobility-shift), HDAC 6; format: biochemical; conditions: 1 hour at room temperature, read-out: IC50 (μM) HDAC6
T1 sequence (Q9UBN7 1-1215): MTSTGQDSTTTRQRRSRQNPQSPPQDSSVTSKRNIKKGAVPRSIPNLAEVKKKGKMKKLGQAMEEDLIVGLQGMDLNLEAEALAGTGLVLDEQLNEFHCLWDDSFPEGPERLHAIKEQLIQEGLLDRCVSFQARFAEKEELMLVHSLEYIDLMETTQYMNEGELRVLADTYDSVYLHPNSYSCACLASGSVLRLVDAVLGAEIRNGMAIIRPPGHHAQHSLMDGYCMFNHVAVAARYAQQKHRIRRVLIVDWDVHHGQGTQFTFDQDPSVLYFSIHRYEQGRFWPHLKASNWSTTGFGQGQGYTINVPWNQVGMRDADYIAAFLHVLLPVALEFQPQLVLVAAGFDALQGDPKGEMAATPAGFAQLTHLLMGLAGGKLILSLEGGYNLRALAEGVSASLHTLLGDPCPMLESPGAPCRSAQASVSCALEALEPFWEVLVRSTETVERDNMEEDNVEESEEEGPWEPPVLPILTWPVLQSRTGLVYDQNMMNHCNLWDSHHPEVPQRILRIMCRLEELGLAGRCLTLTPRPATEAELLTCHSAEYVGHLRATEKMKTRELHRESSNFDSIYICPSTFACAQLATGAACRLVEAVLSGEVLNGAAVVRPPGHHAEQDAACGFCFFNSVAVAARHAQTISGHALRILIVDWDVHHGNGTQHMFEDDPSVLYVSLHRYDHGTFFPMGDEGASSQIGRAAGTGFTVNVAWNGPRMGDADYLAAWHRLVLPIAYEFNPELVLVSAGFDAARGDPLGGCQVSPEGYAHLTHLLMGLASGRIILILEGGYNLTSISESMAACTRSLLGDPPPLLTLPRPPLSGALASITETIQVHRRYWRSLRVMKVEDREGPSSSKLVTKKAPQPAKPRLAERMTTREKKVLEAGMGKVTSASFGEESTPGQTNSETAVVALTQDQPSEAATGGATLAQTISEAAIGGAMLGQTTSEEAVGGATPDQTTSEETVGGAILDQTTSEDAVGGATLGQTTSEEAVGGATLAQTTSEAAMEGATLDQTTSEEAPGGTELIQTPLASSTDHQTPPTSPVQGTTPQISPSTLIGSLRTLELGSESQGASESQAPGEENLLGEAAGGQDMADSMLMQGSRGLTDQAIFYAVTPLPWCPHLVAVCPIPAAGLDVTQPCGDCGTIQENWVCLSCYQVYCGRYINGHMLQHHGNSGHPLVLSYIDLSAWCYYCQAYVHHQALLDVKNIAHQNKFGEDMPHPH
Experimental: (§1) The activity of the compounds of the invention against HDAC 3 (Class I) and HDAC 6 (Class II) can be determined using the Caliper Life Sciences HDAC inhibitor profiling assay, which utilises microfluidic mobility-shift detection.
(§2) Reaction buffer: 25 mM Tris/Cl, pH 8.0, 137 mM NaCl, 2.7 mM KCl, 1 mM MgCl2, 0.1 mg/ml BSA (fatty acid free).
(§3) Stop Buffer: 100 mM HEPES, pH 7.5, 10 mM EDTA, 0.04% Brij-35, 0.25% CR-3, and 2.5 μM Trichostatin A.
(§4) Stopped reactions were assembled in microtiter plate wells by adding 1 μL of the inhibitor compound in DMSO, 15 μL 2× Enzyme, and 15 μL 2× peptide. The reactions were incubated for 1 hour at room temperature, stopped with the addition of 45 μL Stop Solution, and read on the LabChip EZ Reader®. The curves were fit with sigmoidal dose response algorithm using GraphPad Prism.

HDAC 3 = HDAC 3 (Homo sapiens, UniProt O15379); experiment: Caliper HDAC inhibitor profiling assay (microfluidic mobility-shift), HDAC 3; format: biochemical; conditions: 1 hour at room temperature, read-out: IC50 (μM) HDAC3
Experimental: as §1, §2, §3, §4

Chain of HDAC 3 (O15379 whole entry, species assumed): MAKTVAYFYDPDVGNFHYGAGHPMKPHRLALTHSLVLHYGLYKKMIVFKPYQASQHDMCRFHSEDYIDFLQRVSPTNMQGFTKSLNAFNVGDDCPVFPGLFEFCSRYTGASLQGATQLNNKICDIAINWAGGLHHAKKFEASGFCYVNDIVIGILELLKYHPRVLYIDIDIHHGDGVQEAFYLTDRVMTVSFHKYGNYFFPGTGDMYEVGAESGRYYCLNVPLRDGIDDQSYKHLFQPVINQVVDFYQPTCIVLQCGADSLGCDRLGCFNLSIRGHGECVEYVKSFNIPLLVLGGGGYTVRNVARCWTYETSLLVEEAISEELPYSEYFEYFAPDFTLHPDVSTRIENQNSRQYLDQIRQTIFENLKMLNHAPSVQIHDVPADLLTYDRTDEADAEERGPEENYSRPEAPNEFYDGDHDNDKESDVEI
Chain of HDAC 3 (Q9Y618 395-489 partner limits assumed, species assumed): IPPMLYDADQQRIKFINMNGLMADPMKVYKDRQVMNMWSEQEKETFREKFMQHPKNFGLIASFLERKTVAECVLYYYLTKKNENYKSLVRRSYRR

Structure (SMILES)	melting point	IC50 (HDAC 6)	IC50 (HDAC 3)
C=C1CN(Cc2ccc(C(=O)Nc3ccccc3N)cc2)C(CC(=O)N2CCCCC2)c2ccccc21 (stereo not drawn) [Example 2, N-(2-Aminophenyl)-4-{[4-methylene-1-(2-oxo-2-piperidin-1-ylethyl)-3,4-dihydroisoquinolin-2(1H)-yl]methyl}benzamide]	89 to 91 °C	> 10 µM	0.51 µM
C=C1CN(Cc2ccc(C(=O)Nc3ccccc3N)cc2)C(CC(=O)Nc2ccccc2N)c2ccccc21 (stereo not drawn) [Example 8, N-(2-Aminophenyl)-4-{[1-{2-[(2-aminophenyl)amino]-2-oxoethyl}-4-methylene-3,4-dihydroisoquinolin-2(1H)-yl]methyl}benzamide]	135 to 137 °C	> 10 µM	0.35 µM
C=C1CN(Cc2ccc(C(=O)Nc3ccccc3N)cc2)C(=O)c2ccc(C(=O)OC)cc21 [Example 13, Methyl 2-(4-{[(2-aminophenyl)amino]carbonyl}benzyl)-4-methylene-1-oxo-1,2,3,4-tetrahydroisoquinoline-6-carboxylate]	196 to 198 °C	> 10 µM	0.27 µM
C=C1CN(Cc2ccc(C(=O)Nc3ccccc3N)cc2)C(=O)c2ccc(C(=O)NCCN)cc21 [Example 14, N-(2-Aminoethyl)-2-(4-{[(2-aminophenyl)amino]carbonyl}benzyl)-4-methylene-1-oxo-1,2,3,4-tetrahydroisoquinoline-6-carboxamide]	172 to 174 °C (dec.)	> 10 µM	0.23 µM
C=C1CN(S(=O)(=O)c2ccc(C(=O)Nc3ccccc3N)cc2)C(CC#N)c2ccccc21 (stereo not drawn) [Example 15]	213 to 215 °C	> 10 µM	1.4 µM

Next, values leading:

melting point	IC50 (HDAC 6)	IC50 (HDAC 3)	Structure (SMILES)
111 to 113 °C	> 10 µM	0.89 µM	C=C1CN(Cc2ccc(C(=O)Nc3ccccc3N)cc2)C(CC(=O)OCC)c2ccccc21 (stereo not drawn) [Example 1, Ethyl [2-(4-{[(2-aminophenyl)amino]carbonyl}benzyl)-4-methylene-1,2,3,4-tetrahydroisoquinolin-1-yl]acetate]
151 to 153 °C	> 10 µM	0.98 µM	C=C1CN(Cc2ccc(C(=O)Nc3ccccc3N)cc2)C(CC(=O)OC)c2ccccc21 (stereo not drawn) [Example 3, Methyl [2-(4-{[(2-aminophenyl)amino]carbonyl}benzyl)-4-methylene-1,2,3,4-tetrahydroisoquinolin-1-yl]acetate]
99 to 101 °C	> 10 µM	0.26 µM	C=C1CN(Cc2ccc(C(=O)Nc3ccccc3N)cc2)C(CC(=O)N2CCOCC2)c2ccccc21 (stereo not drawn) [Example 4]
–	> 10 µM	2.7 µM	C=C1CN(Cc2ccc(C(=O)Nc3ccccc3N)cc2)C(CC(=O)c2ccccc2)c2ccccc21 (stereo not drawn) [Example 5, N-(2-Aminophenyl)-4-{[4-methylene-1-(2-oxo-2-phenylethyl)-3,4-dihydroisoquinolin-2(1H)-yl]methyl}benzamide]
93 to 95 °C	> 10 µM	0.31 µM	C=C1CN(Cc2ccc(C(=O)Nc3ccccc3N)cc2)C(CC#N)c2ccccc21 (stereo not drawn) [Example 6, N-(2-Aminophenyl)-4-{[1-(cyanomethyl)-4-methylene-3,4-dihydroisoquinolin-2(1H)-yl]methyl}benzamide]
–	> 10 µM	0.67 µM	C=C1CN(Cc2ccc(C(=O)Nc3ccccc3N)cc2)C(CC(=O)NCCO)c2ccccc21 (stereo not drawn) [Example 10, N-(2-Aminophenyl)-4-{[1-{2-[(2-hydroxyethyl)amino]-2-oxoethyl}-4-methylene-3,4-dihydroisoquinolin-2(1H)-yl]methyl}-benzamide]
–	> 10 µM	0.56 µM	C=C1CN(Cc2ccc(C(=O)Nc3ccccc3N)cc2)C(CC(=O)N2CCN(C)CC2)c2ccccc21 (stereo not drawn) [Example 11, N-(2-Aminophenyl)-4-{[4-methylene-1-[2-(4-methylpiperazin-1-yl)-2-oxoethyl]-3,4-dihydroisoquinolin-2(1H)-yl]methyl}benzamide]

Source: patent US20140135327A1, “N- (2 -AMINOPHENYL) BENZAMIDE DERIVATIVES AS HISTONE DEACETYLASE INHIBITORS” (CANCER RESEARCH TECHNOLOGY LIMITED, priority 2011, published 2014)
